# ChEMBL document CHEMBL1629479, “Old phenothiazine and dibenzothiadiazepine derivatives for tomorrow's neuroprotective therapies against neurodegenerative diseases” (Eur J Med Chem, 2010)
# Tests used:
# SH-SY5Y [1] = assay: Neuroprotective activity against H2O2-induced oxidative stress in human SH-SY5Y cells assessed as LDH release at 1 uM after 24 hrs by UV-vis spectroscopy; assay type: functional
# Acetylcholinesterase = biological target: T1, Acetylcholinesterase (Bos taurus, UniProt P23795)
# T1 sequence (P23795 whole entry): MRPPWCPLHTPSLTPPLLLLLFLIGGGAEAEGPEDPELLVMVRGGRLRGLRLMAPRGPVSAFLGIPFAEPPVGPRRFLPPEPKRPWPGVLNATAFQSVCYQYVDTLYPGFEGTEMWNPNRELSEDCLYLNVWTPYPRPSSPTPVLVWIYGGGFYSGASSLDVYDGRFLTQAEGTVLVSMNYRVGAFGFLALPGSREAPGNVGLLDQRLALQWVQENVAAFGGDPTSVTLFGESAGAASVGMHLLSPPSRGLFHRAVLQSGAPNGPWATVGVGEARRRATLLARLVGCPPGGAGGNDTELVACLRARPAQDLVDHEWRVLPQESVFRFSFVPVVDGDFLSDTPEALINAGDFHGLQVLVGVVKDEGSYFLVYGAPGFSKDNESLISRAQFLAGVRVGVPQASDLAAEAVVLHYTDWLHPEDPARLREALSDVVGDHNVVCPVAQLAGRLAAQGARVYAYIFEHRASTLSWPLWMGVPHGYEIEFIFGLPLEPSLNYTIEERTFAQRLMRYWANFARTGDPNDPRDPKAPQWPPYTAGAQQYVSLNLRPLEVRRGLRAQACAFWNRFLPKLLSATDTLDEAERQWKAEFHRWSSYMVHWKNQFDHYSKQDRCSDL
# Description: Inhibition of bovine erythrocyte AChE by Ellman's method
# SH-SY5Y [2] = assay: Neuroprotective activity against H2O2-induced oxidative stress in human SH-SY5Y cells assessed as LDH release at 3 uM after 24 hrs by UV-vis spectroscopy; assay type: functional
# Cholinesterase = Cholinesterase (Equus caballus, UniProt P81908); assay: Inhibition of equine serum BuChE by Ellman's method
# Cholinesterase, sequence (P81908 whole entry): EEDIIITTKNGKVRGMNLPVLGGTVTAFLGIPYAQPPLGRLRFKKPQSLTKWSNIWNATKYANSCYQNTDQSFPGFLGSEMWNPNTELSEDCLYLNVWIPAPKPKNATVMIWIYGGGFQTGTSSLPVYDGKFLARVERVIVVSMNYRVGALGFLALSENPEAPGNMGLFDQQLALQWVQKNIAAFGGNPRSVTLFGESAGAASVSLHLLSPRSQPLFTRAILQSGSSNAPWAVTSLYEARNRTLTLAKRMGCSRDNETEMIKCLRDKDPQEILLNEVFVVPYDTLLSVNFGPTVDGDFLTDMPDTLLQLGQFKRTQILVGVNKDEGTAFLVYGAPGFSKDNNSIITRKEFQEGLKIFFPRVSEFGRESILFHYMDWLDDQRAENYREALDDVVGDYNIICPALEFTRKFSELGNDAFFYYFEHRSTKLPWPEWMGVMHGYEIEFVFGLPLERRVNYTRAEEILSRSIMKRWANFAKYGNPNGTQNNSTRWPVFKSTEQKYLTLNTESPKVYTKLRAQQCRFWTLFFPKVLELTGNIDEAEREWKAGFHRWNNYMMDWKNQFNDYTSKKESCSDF
# SH-SY5Y [3] = assay: Cytotoxicity against human SH-SY5Y cells assessed as LDH release at 100 uM after 24 hrs by UV-vis spectroscopy; assay type: cell-based
# SH-SY5Y [4] = assay: Neuroprotective activity against H2O2-induced oxidative stress in human SH-SY5Y cells assessed as LDH release at 30 uM after 24 hrs by UV-vis spectroscopy; assay type: functional
# SH-SY5Y [5] = assay: Neuroprotective activity against H2O2-induced oxidative stress in human SH-SY5Y cells assessed as LDH release at 100 uM after 24 hrs by UV-vis spectroscopy; assay type: functional
# SH-SY5Y [6] = assay: Neuroprotective activity against H2O2-induced oxidative stress in human SH-SY5Y cells assessed as LDH release at 60 uM after 24 hrs by UV-vis spectroscopy; assay type: functional
# SH-SY5Y [7] = assay: Neuroprotective activity against rotenone and oligomycin-induced mitochondrial oxidative stress in human SH-SY5Y cells assessed as LDH release at 3 uM after 24 hrs using DCFH-DA fluorescent dye; assay type: functional
# SH-SY5Y [8] = assay: Neuroprotective activity against rotenone and oligomycin-induced mitochondrial oxidative stress in human SH-SY5Y cells assessed as LDH release at 10 uM after 24 hrs using DCFH-DA fluorescent dye; assay type: functional
# SH-SY5Y [9] = assay: Neuroprotective activity against H2O2-induced oxidative stress in human SH-SY5Y cells assessed as LDH release at 100 uM after 24 hrs by UV-vis spectroscopy in presence of calcium channel blocker nimodipine; assay type: functional
# SH-SY5Y [10] = assay: Neuroprotective activity against rotenone and oligomycin-induced mitochondrial oxidative stress in human SH-SY5Y cells assessed as LDH release at 30 uM after 24 hrs using DCFH-DA fluorescent dye; assay type: functional
# [11] = Permeability of the compound by PAMPA at pH 7.4; assay type: ADME; conditions: read-out: permeability
# SH-SY5Y [12] = assay: Neuroprotective activity against H2O2-induced oxidative stress in human SH-SY5Y cells assessed as LDH release at 30 uM after 24 hrs by UV-vis spectroscopy in presence of calcium channel blocker nimodipine; assay type: functional
SMILES,Activity (SH-SY5Y [1]),IC50 (Acetylcholinesterase),Activity (SH-SY5Y [2]),IC50 (Cholinesterase),Activity (SH-SY5Y [3]),Activity (SH-SY5Y [4]),Activity (SH-SY5Y [5]),Activity (SH-SY5Y [6]),Activity (SH-SY5Y [7]),Activity (SH-SY5Y [8]),Activity (SH-SY5Y [9]),Activity (SH-SY5Y [10]),Papp [11],Activity (SH-SY5Y [12])
CN1CCN(CC(=O)NN2c3ccccc3Sc3cc(Cl)ccc32)CC1,12.5%,> 100 µM,17.1%,0.5 µM,Non-toxic,37.9%,18.8%,18.4%,,,,,,
Cc1c(C)c2c(c(C)c1O)CCC(C)(C(=O)O)O2 (configuration not stated) [TROLOX],0%,,0%,,,57.7%,64.2%,55.7%,52.9%,43.2%,60.3%,39.3%,,
CN(C)CCC(=O)NN1c2ccccc2Sc2cc(Cl)ccc21,0%,> 100 µM,8.4%,0.7 µM,Non-toxic,44.4%,20.1%,18.6%,21.4%,18.9%,,52.9%,8.8 ×10⁻⁶ cm/s,6.5%
CN1CCN(NCCN2c3ccccc3Sc3ccccc32)CC1.Cl.Cl,14.1%,> 100 µM,8.3%,50 µM,Non-toxic,22.1%,42.1%,36.9%,19.4%,22.5%,16.4%,22.6%,9.1 ×10⁻⁶ cm/s,
CC(=O)n1c2ccccc2sc2cccc(Cl)c2n1C(C)=O,0%,> 100 µM,6.4%,> 100 µM,Non-toxic,11.4%,41%,13.2%,48.5%,43.4%,0%,38.9%,7.7 ×10⁻⁶ cm/s,
CC(=O)NN1c2ccccc2Sc2ccc(Cl)cc21,0%,> 100 µM,0%,> 100 µM,Non-toxic,0%,0%,0%,,,,,,
NN1c2ccccc2Sc2ccccc21,0%,> 100 µM,6.7%,> 100 µM,Non-toxic,0%,0%,0%,,,,,,
